Data published in US20110230481A2, “DERIVATIVES OF TETRABROMOBENZIMIDAZOLE, A PROCESS FOR THE PREPARATION THEREOF, A PHARMACEUTICAL COMPOSITION COMPRISING THE SAME, A METHOD OF USING THE SAME, A METHOD FOR MODULATING OR REGULATING SERINE/THREONINE KINASES, AND SERINE/THREONINE KINASES MODULATING AGENT” (SELVITA S.A., priority 2009, published 2011).

Experiments:
Experiment in all cases: KINOMEscan Max
Assay type in all cases: binding
SNARK = biological target: T1, SNARK (Homo sapiens, UniProt Q9H093); conditions: 1 μM
T1 construct: DNA tag (qPCR read-out)
Outline: (§1)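 Compound displacement of DNA-tagged kinase from immobilized active-site ligand; qPCR of tag as read-out.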

MYLK4 = biological target: T2, MYLK4 (Homo sapiens, UniProt Q86YV6)
T2 construct: DNA tag (qPCR read-out); purchased Ambit Kinomescan
Outline: as §1

EGFR(L858R) = EGFR(L858R) (Homo sapiens, UniProt P00533, L858R); conditions: 1 μM
Outline: as §1

CHEK2 = CHEK2 (Homo sapiens, UniProt O96017)
Outline: as §1

CDK5 = biological target: T3, CDK5 (Homo sapiens, UniProt Q00535)
T3 construct: DNA tag (qPCR label); purchased Ambit Kinomescan (contract screening)
Outline: as §1

MAPKAPK2 = biological target: T4, MAPKAPK2 (Homo sapiens, UniProt P49137)
T4 construct: purchased Ambit Kinomescan (contract panel)
Outline: as §1

MYLK = biological target: T5, MYLK (Homo sapiens, UniProt Q15746)
T5 construct: purchased Ambit (KINOMEscan Max service)
Outline: as §1

DDR2 = biological target: T6, DDR2 (Homo sapiens, UniProt Q16832)
T6 construct: purchased Ambit (KINOMEscan Max panel service)
Outline: as §1

IRAK3 = biological target: T7, IRAK3 (Homo sapiens, UniProt Q9Y616)
T7 construct: purchased Ambit (KINOMEscan Max service)
Outline: as §1

MTOR = MTOR (Homo sapiens, UniProt P42345)
Outline: as §1

MRCKB = MRCKB (Homo sapiens, UniProt Q9Y5S2)
Outline: as §1

PIK3CA(H1047L) = biological target: T8, PIK3CA(H1047L) (Homo sapiens, UniProt P42336, H1047L)
T8 construct: DNA tag (qPCR read-out)
Outline: as §1

CASK = CASK (Homo sapiens, UniProt O14936)
Outline: as §1

ALK = biological target: T9, ALK (Homo sapiens, UniProt Q9UM73)
T9 construct: DNA tag (qPCR label); purchased Ambit Kinomescan (contract screening)
Outline: as §1

PIK4CB = biological target: T10, PIK4CB (Homo sapiens, UniProt Q9UBF8)
T10 construct: DNA tag (qPCR read-out)
Outline: as §1

FLT1 = biological target: T11, FLT1 (Homo sapiens, UniProt P17948)
T11 construct: purchased Ambit Kinomescan (contract panel, KINOMEscan Max)
Outline: as §1

MARK3 = biological target: T12, MARK3 (Homo sapiens, UniProt P27448)
T12 construct: purchased Ambit Kinomescan (contract panel)
Outline: as §1

RET(V804L) = biological target: T13, RET(V804L) (Homo sapiens, UniProt P07949, V804L)
T13 construct: DNA tag (qPCR read-out)
Outline: as §1

[1] = biological target: T14, RPS6KA5(Kin.Dom.2-C-terminal) (Homo sapiens, UniProt O75582)
T14 construct: RPS6KA5(Kin.Dom.2-C-terminal); DNA tag (qPCR read-out)
Outline: as §1

SRPK3 = biological target: T15, SRPK3 (Homo sapiens, UniProt Q9UPE1)
T15 construct: DNA tag (qPCR read-out)
Outline: as §1

CDK9 = biological target: T16, CDK9 (Homo sapiens, UniProt P50750)
T16 construct: DNA tag (qPCR read-out)
Outline: as §1

TEC = biological target: T17, TEC (Homo sapiens, UniProt P42680)
T17 construct: purchased Ambit Kinomescan (contract screening service)
Outline: as §1

JNK2 = biological target: T18, JNK2 (Homo sapiens, UniProt P45984); conditions: 1 μM
T18 construct: purchased Ambit Kinomescan (contract panel)
Outline: as §1

PIP5K2B = biological target: T19, PIP5K2B (Homo sapiens, UniProt P78356)
T19 construct: purchased Ambit Kinomescan (contract screening)
Outline: as §1

FLT3(R834Q) = biological target: T20, FLT3(R834Q) (Homo sapiens, UniProt P36888, R834Q)
T20 construct: purchased Ambit Kinomescan (contract panel, KINOMEscan Max)
Outline: as §1

MAST1 = MAST1 (Homo sapiens, UniProt Q9Y2H9)
Outline: as §1

HIPK1 = biological target: T21, HIPK1 (Homo sapiens, UniProt Q86Z02)
T21 construct: DNA tag (qPCR read-out); purchased Ambit Kinomescan
Outline: as §1

[2] = biological target: T22, TYK2(JH1domain-catalytic) (Homo sapiens, UniProt P29597); conditions: 1 μM
T22 construct: TYK2(JH1domain-catalytic); purchased Ambit Kinomescan (contract screening service)
Outline: as §1

FRK = biological target: T23, FRK (Homo sapiens, UniProt P42685)
T23 construct: purchased Ambit Kinomescan (contract panel, KINOMEscan Max)
Outline: as §1

CHEK1 = biological target: T24, CHEK1 (Homo sapiens, UniProt O14757); conditions: 1 μM
T24 construct: DNA tag (qPCR read-out)
Outline: as §1

GSK3B = biological target: T25, GSK3B (Homo sapiens, UniProt P49841)
T25 construct: purchased Ambit Kinomescan (contract panel, KINOMEscan Max)
Outline: as §1

QSK = biological target: T26, QSK (Homo sapiens, UniProt Q9Y2K2); conditions: 1 μM
T26 construct: DNA tag (qPCR read-out)
Outline: as §1

LYN = biological target: T27, LYN (Homo sapiens, UniProt P07948)
T27 construct: purchased Ambit Kinomescan (contract panel)
Outline: as §1

T8 sequence (P42336 whole entry H1047L): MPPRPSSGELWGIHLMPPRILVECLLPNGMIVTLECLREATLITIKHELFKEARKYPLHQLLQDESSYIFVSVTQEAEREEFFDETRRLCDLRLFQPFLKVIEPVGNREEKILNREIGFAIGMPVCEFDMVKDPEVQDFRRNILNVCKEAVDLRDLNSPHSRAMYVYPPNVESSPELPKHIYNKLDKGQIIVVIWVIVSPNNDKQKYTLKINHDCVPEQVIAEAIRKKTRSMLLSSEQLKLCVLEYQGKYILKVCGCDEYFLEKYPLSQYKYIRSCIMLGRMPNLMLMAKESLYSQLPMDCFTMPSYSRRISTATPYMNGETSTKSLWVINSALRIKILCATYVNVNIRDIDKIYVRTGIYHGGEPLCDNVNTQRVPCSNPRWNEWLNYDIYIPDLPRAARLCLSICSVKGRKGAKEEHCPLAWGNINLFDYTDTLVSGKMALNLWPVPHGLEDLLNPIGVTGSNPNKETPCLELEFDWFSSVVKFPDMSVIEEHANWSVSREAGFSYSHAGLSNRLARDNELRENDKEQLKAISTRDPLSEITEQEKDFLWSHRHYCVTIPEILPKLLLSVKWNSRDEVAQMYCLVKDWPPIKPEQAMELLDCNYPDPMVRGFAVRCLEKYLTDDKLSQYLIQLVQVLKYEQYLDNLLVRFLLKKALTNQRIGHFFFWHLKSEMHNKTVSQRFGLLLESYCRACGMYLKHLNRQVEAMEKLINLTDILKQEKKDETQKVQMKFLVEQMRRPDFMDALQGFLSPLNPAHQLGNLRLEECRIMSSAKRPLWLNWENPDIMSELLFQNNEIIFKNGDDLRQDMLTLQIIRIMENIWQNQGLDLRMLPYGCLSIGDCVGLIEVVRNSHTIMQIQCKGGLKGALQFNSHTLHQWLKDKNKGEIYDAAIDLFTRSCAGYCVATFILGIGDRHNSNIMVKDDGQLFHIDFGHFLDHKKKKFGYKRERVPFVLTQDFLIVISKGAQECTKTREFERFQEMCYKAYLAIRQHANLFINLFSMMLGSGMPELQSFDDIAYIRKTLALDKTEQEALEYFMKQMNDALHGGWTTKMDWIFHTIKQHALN
Sequence of MRCKB (Q9Y5S2 whole entry): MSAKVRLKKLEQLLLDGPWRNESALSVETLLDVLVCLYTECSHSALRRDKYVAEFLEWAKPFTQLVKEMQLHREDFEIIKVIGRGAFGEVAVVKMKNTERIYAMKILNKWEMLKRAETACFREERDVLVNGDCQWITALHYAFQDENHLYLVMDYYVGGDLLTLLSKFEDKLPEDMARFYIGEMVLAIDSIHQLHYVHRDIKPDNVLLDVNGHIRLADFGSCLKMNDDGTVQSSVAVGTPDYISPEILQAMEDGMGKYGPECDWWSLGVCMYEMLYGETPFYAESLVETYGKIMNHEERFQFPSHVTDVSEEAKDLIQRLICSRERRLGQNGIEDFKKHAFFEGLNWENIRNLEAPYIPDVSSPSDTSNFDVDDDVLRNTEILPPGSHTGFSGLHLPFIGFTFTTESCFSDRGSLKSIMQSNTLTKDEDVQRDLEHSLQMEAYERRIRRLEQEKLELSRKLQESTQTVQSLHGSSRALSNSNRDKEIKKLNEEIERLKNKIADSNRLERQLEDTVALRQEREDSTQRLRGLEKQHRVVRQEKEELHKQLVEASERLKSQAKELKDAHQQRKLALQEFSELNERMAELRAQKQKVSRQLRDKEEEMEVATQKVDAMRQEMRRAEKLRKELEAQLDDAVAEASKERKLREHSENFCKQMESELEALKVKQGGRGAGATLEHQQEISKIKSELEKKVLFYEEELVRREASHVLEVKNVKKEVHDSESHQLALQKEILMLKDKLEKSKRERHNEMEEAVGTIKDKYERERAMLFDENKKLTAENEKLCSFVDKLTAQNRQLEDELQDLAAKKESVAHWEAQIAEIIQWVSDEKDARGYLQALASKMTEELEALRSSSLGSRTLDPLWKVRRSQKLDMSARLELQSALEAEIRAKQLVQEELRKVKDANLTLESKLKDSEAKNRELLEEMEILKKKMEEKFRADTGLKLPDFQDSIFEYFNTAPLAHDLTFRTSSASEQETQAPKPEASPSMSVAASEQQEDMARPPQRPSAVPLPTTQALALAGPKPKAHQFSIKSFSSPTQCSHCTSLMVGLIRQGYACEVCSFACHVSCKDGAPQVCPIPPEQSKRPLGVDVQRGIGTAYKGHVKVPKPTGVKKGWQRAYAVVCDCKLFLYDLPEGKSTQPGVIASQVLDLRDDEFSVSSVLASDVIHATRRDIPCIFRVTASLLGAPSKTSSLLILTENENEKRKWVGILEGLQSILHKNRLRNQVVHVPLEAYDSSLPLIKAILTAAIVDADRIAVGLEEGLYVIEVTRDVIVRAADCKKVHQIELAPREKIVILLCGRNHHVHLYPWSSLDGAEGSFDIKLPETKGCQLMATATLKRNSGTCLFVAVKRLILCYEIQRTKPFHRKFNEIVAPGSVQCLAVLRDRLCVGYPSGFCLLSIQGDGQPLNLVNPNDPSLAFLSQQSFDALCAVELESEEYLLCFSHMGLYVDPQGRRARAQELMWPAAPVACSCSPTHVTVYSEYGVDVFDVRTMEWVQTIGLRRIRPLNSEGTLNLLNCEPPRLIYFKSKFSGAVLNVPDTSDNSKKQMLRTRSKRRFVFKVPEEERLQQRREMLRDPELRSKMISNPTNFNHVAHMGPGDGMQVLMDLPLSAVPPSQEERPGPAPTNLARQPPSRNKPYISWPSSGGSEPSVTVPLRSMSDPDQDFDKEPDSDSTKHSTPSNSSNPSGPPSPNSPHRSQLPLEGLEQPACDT
T18 sequence (P45984 whole entry): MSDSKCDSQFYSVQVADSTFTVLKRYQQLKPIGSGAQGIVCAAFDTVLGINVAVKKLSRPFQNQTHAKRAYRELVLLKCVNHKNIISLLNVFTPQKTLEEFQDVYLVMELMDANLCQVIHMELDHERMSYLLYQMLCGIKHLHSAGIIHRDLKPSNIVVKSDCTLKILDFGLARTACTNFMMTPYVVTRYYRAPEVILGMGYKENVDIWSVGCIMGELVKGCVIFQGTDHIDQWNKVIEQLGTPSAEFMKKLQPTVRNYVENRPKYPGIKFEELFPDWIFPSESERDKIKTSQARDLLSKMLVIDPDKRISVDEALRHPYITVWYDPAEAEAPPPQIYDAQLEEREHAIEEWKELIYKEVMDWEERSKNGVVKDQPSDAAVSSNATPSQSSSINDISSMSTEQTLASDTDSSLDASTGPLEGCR
T10 sequence (Q9UBF8 whole entry): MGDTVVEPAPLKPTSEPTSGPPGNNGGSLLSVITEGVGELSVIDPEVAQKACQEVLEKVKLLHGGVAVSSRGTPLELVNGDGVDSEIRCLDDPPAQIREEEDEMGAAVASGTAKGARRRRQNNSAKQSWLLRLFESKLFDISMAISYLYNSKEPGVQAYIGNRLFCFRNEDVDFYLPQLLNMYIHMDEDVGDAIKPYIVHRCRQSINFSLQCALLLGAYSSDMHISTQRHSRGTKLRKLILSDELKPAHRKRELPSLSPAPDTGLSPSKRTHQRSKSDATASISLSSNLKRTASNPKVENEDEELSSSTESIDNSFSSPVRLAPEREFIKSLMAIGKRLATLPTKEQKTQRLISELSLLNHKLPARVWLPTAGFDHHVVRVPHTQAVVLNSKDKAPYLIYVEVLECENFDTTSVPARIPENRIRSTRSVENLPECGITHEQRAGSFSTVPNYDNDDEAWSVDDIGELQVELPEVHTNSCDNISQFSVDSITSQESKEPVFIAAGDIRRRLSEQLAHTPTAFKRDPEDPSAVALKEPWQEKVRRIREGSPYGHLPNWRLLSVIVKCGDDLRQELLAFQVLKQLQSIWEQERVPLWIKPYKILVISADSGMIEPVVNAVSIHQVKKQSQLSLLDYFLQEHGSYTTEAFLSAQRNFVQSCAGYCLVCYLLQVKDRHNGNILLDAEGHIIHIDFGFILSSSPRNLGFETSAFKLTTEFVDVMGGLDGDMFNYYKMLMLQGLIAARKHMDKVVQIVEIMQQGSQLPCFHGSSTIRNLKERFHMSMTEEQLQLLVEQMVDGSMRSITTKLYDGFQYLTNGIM
T6 sequence (Q16832 22-855): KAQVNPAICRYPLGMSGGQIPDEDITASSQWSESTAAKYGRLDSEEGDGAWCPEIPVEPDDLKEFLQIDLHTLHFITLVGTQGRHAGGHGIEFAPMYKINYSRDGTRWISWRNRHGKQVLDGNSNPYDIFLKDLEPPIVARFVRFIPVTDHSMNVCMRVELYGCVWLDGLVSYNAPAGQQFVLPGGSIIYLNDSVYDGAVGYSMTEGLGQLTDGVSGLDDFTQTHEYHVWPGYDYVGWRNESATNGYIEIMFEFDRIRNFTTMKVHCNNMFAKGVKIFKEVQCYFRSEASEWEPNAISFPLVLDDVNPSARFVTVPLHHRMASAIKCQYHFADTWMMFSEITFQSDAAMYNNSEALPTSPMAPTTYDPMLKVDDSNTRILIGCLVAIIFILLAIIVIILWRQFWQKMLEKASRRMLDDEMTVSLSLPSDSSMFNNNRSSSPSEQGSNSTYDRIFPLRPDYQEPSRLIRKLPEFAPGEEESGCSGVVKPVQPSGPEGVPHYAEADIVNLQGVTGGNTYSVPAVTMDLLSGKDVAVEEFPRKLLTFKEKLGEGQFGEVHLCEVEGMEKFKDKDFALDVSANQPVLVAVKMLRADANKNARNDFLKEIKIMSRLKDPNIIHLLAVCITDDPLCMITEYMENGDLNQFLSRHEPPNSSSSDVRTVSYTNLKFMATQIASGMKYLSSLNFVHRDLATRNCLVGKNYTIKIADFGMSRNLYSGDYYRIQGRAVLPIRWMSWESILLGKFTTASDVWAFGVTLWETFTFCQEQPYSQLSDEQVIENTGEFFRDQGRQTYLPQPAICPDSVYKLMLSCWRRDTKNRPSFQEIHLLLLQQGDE

SMILES: NCCCNc1nc2c(Br)c(Br)c(Br)c(Br)c2[nH]1 [Compound 11, N-(3-aminopropyl)-4,5,6,7-tetrabromo-1H-benzo[d]imidazol-2-amine]
- % binding (SNARK): 54%
- remaining binding at 1 µM (MYLK4): 24%
- % binding (EGFR(L858R)): 96%
- remaining binding at 1 µM (CHEK2): 80%
- remaining binding at 1 µM (CDK5): 100%
- remaining binding at 1 µM (MAPKAPK2): 100%
- remaining binding at 1 µM (MYLK): 58%
- remaining binding at 1 µM (DDR2): 100%
- remaining binding at 1 µM (IRAK3): 86%
- remaining binding at 1 µM (MTOR): 100%
- remaining binding at 1 µM (MRCKB): 100%
- remaining binding at 1 µM (PIK3CA(H1047L)): 100%
- remaining binding at 1 µM (CASK): 94%
- remaining binding at 1 µM (ALK): 100%
- remaining binding at 1 µM (PIK4CB): 100%
- remaining binding at 1 µM (FLT1): 100%
- remaining binding at 1 µM (MARK3): 100%
- remaining binding at 1 µM (RET(V804L)): 100%
- remaining binding at 1 µM [1]: 100%
- remaining binding at 1 µM (SRPK3): 100%
- remaining binding at 1 µM (CDK9): 90%
- remaining binding at 1 µM (TEC): 100%
- % binding (JNK2): 100%
- remaining binding at 1 µM (PIP5K2B): 97%
- remaining binding at 1 µM (FLT3(R834Q)): 100%
- remaining binding at 1 µM (MAST1): 95%
- remaining binding at 1 µM (HIPK1): 2.8%
- % binding [2]: 100%
- remaining binding at 1 µM (FRK): 100%
- % binding (CHEK1): 88%
- remaining binding at 1 µM (GSK3B): 100%
- % binding (QSK): 100%
- remaining binding at 1 µM (LYN): 100%
